According to patent US20020026053A1, “Novel 3-(substituted) -2- indolinones compounds and use thereof as inhibitors of protein kinase activity” (priority 1997, published 2002):

System: PDGF-R
Assay: PDGF-R Assay (cellular ELISA, U1242 cells)
Assay type: cell-based
Design: concentration or dose not given beside the values
Protocol: The cellular/catalytic assays described herein are performed in an ELISA format. The general procedure is as follows: a compound is introduced to cells expressing the test kinase, either naturally or recombinantly, for a selected period of time after which, if the test kinase is a receptor, a ligand known to activate the receptor is added. The cells are lysed and the lysate is transferred to the wells of an ELISA plate previously coated with a specific antibody recognizing the substrate of the enzymatic phosphorylation reaction. Non-substrate components of the cell lysate are washed away and the amount of phosphorylation on the substrate is detected with an antibody specifically recognizing phosphotyrosine compared with control cells that were not contacted with a test compound.
All cell culture media, glutamine, and fetal bovine serum can be purchased from Gibco Life Technologies (Grand Island, N.Y.) unless otherwise specified. All cells are grown in a humid atmosphere of 90-95% air and 5-10% CO2 at 37° C. All cell lines are routinely subcultured twice a week and are negative for mycoplasma as determined by the Mycotect method (Gibco).
For ELISA assays, cells (U1242, obtained from Joseph Schlessinger, NYU) are grown to 80-90% confluency in growth medium (MEM with 10% FBS, NEAA, 1 mM NaPyr and 2 mM GLN) and seeded in 96-well tissue culture plates in 0.5% serum at 25,000 to 30,000 cells per well. After overnight incubation in 0.5% serum-containing medium, cells are changed to serum-free medium and treated with test compound for 2 hr in a 5% CO2, 37° C. incubator. Cells are then stimulated with ligand for 5-10 minute followed by lysis with HNTG (20 mM Hepes, 150 mM NaCl, 10% glycerol, 5 mM EDTA, 5 mM Na3VO4, 0.2% Triton X-100, and 2 mM NaPyr). Cell lysates (0.5 mg/well in PBS) are transferred to ELISA plates previously coated with receptor-specific antibody and which had been blocked with 5% milk in TBST (50 mM Tris-HCl pH 7.2, 150 mM NaCl and 0.1% Triton X-100) at room temperature for 30 min. Lysates are incubated with shaking for 1 hour at room temperature. The plates are washed with TBST four times and then incubated with polyclonal anti-phosphotyrosine antibody at room temperature for 30 minutes. Excess anti-phosphotyrosine antibody is removed by rinsing the plate with TBST four times. Goat anti-rabbit IgG antibody is added to the ELISA plate for 30 min at room temperature followed by rinsing with TBST four more times. ABTS (100 mM citric acid, 250 mM Na2HPO4 and 0.5 mg/mL 2,2′-azino-bis (3-ethylbenzthiazoline-6-sulfonic acid)) plus H2O2 ([…] 30% H2O2 to 10 ml ABTS) is added to the ELISA plates to start color development. Absorbance at 410 nm with a reference wavelength of 630 nm is recorded about 15 to 30 min after ABTS addition.

| Compound | PDGF Kinase % Inhibition (P.119) [%] |
| --- | --- |
| COc1c(Br)cc(C=C2C(=O)Nc3c(Br)cc(Br)c(C)c32)cc1C(C)(C)C [10732/H07] | −22.0 |
| Cc1c(Br)cc(Br)c2c1C(=Cc1cc(Br)c(OCc3ccccc3)c(C(C)(C)C)c1)C(=O)N2 [10732/H08] | 7.8 |
| COc1c(Cl)cc(C=C2C(=O)Nc3c(Br)cc(Br)c(C)c32)cc1C(C)(C)C [10732/H09] | −14.4 |
| Cc1c(Br)cc(Br)c2c1C(=Cc1cc(Cl)c(OCc3ccccc3)c(C(C)(C)C)c1)C(=O)N2 [10732/H10] | −21.0 |
| COc1c(I)cc(C=C2C(=O)Nc3c(Br)cc(Br)c(C)c32)cc1C(C)(C)C [10732/H11] | −16.0 |
| Cc1c(Br)cc(Br)c2c1C(=Cc1cc(I)c(OCc3ccccc3)c(C(C)(C)C)c1)C(=O)N2 [10733/H02] | −5.6 |
| COc1c([N+](=O)[O-])cc(C=C2C(=O)Nc3c(Br)cc(Br)c(C)c32)cc1C(C)(C)C [10733/H03] | 16.8 |
| COc1c(C(C)(C)C)cc(C=C2C(=O)Nc3c(Br)cc(Br)c(C)c32)cc1C(C)(C)C [10733/H04] | −14.5 |
| Cc1c(Br)cc(Br)c2c1C(=Cc1cc(C(C)(C)C)c(OCc3ccccc3)c(C(C)(C)C)c1)C(=O)N2 [10733/H05] | −15.3 |
| COc1c(C)cc(C=C2C(=O)Nc3c(Br)cc(Br)c(C)c32)cc1C [10733/H06] | −12.9 |
| Cc1cc(C=C2C(=O)Nc3c(Br)cc(Br)c(C)c32)cc(C)c1OCc1ccccc1 [10733/H07] | −19.0 |
| COc1cc(Br)cc(C=C2C(=O)Nc3c(Br)cc(Br)c(C)c32)c1O [10733/H08] | −15.3 |
| Cc1c(Br)cc(Br)c2c1C(=Cc1cc(Br)ccc1O)C(=O)N2 [10733/H09] | 5.0 |
| Cc1c(Br)cc(Br)c2c1C(=Cc1cc([N+](=O)[O-])ccc1O)C(=O)N2 [10733/H10] | 10.7 |
| COc1c(O)ccc(C=C2C(=O)Nc3c(Br)cc(Br)c(C)c32)c1[N+](=O)[O-] [10733/H11] | −4.8 |
